# In US10188108B2, “Fused bicyclic heterocycle derivatives as pesticides” (BAYER CROPSCIENCE AKTIENGESELLSCHAFT, priority 2015, dated 2019):
# What was measured:
# Spodoptera frugiperda = Spodoptera frugiperda - spray test; assay type: in vivo; settings: 500 g/ha, after 7 days, caterpillars on maize leaf discs
# Method: (§1) • Solvent: 78.0 parts by weight of acetone • 1.5 parts by weight of dimethylformamide • Emulsifier: alkylaryl polyglycol ether
# (§2) To produce a suitable preparation of active compound, 1 part by weight of active compound is dissolved using the stated parts by weight of solvent and made up with water containing an emulsifier concentration of 1000 ppm until the desired concentration is attained. To produce further test concentrations, the preparation is diluted with emulsifier-containing water.
# Leaf discs of maize (Zea mays) are sprayed with an active compound preparation of the desired concentration and, after drying, populated with caterpillars of the armyworm (Spodoptera frugiperda).
# After 7 days, the efficacy in % is determined. 100% means that all the caterpillars have been killed; 0% means that no caterpillars have been killed.
# [1] = log P by HPLC on a reversed-phase column (C 18), EEC Directive 79/831 Annex V.A8; assay type: physicochemical; settings: 55° C.; for LOGP_HCOOH: acidic range, pH 2.7, 0.1% aqueous formic acid/acetonitrile; for LOGP_NEUTRAL: neutral range, pH 7.8, 0.001 molar aqueous ammonium hydrogencarbonate/acetonitrile
# Method: The log P values are measured according to EEC Directive 79/831 Annex V.A8 by HPLC (high-performance liquid chromatography) on a reversed-phase column (C 18). Temperature: 55° C.
# The LC-MS determination in the acidic range is effected at pH 2.7 using 0.1% aqueous formic acid and acetonitrile (contains 0.1% formic acid) as eluents; linear gradient from 10% acetonitrile to 95% acetonitrile. Called log P (HCOOH) in the table.
# LC-MS determination in the neutral range is effected at pH 7.8 with 0.001 molar aqueous ammonium hydrogencarbonate solution and acetonitrile as eluents; linear gradient from 10% acetonitrile to 95% acetonitrile. Called log P (neutral) in the table.
# Calibration is carried out using unbranched alkan-2-ones (having 3 to 16 carbon atoms) with known log P values (log P values determined on the basis of the retention times by linear interpolation between two successive alkanones).
# Lucilia cuprina = Lucilia cuprina test; assay type: in vivo; settings: 100 ppm, after 2 days, L1 larvae
# Method: • Solvent: dimethyl sulphoxide To produce a suitable preparation of active compound, 10 mg of active compound are mixed with 0.5 ml of dimethyl sulphoxide, and the concentrate is diluted with water to the desired concentration. About 20 L1 larvae of the Australian sheep blowfly (Lucilia cuprina) are transferred into a test vessel containing minced horsemeat and the active compound preparation of the desired concentration. After 2 days, the kill in % is determined. 100% means that all the larvae have been killed; 0% means that no larvae have been killed.
# Phaedon cochleariae = Phaedon cochleariae - spray test; assay type: in vivo; settings: 500 g/ha, after 7 days, larvae on Chinese cabbage leaf discs
# Method: as §1, §2
# After 7 days, the efficacy in % is determined. 100% means that all the beetle larvae have been killed; 0% means that no beetle larvae have been killed.
# Myzus persicae [2] = assay: Myzus persicae spray test (bell pepper plants); assay type: in vivo; settings: 100 ppm, after 6 days
# Method: • Solvent: 14 parts by weight of dimethylformamide • Emulsifier: alkylaryl polyglycol ether
# as §2, with “water. If the addition of ammonium salts or/and penetrants is required, these are each added in a concentration of 1000 ppm to the formulation solution.” for “water.”
# Bell pepper plants (Capsicum annuum) severely infested with the green peach aphid (Myzus persicae) are treated by spraying with the active compound preparation in the desired concentration.
# After 6 days, the kill in % is determined. 100% means that all of the aphids have been killed; 0% means that none of the aphids have been killed.
# Ctenocephalides felis [3] = assay: Ctenocephalides felis - oral test; assay type: in vivo; settings: 100 ppm in citrated cattle blood, after 2 days, adult cat fleas
# Method: • Solvent: dimethyl sulphoxide To produce a suitable preparation of active compound, 10 mg of active compound are mixed with 0.5 ml of dimethyl sulphoxide. Dilution with citrated cattle blood gives the desired concentration. About 20 unfed adult cat fleas (Ctenocephalides felis) are placed into a chamber which is closed at the top and bottom with gauze. A metal cylinder whose bottom end is closed with parafilm is placed onto the chamber. The cylinder contains the blood/active compound preparation, which can be imbibed by the fleas through the parafilm membrane. After 2 days, the kill in % is determined. 100% means that all of the fleas have been killed; 0% means that none of the fleas have been killed.
# Boophilus microplus = Boophilus microplus - injection test; assay type: in vivo; settings: 20 μg/animal injected, engorged adult female cattle ticks, laying of fertile eggs after 7 days
# Method: • Solvent: dimethyl sulphoxide
# To produce a suitable preparation of active compound, 10 mg of active compound are mixed with 0.5 ml of solvent and the concentrate is diluted with solvent to the desired concentration.
# 1 μl of the active compound solution is injected into the abdomen of 5 engorged adult female cattle ticks (Boophilus microplus). The animals are transferred into dishes and kept in a climate-controlled room.
# Efficacy is assessed after 7 days by laying of fertile eggs. Eggs which are not visibly fertile are stored in a climate-controlled cabinet until the larvae hatch after about 42 days. An efficacy of 100% means that none of the ticks has laid any fertile eggs; 0% means that all the eggs are fertile.
# Musca domestica = Musca domestica test; assay type: in vivo; settings: after 2 days, adult houseflies
# Method: • Solvent: dimethyl sulphoxide To produce a suitable preparation of active compound, 10 mg of active compound are mixed with 0.5 ml of dimethyl sulphoxide, and the concentrate is diluted with water to the desired concentration. Vessels containing a sponge treated with sugar solution and the active compound preparation of the desired concentration are populated with 10 adult houseflies (Musca domestica). After 2 days, the kill in % is determined. 100% means that all of the flies have been killed; 0% means that none of the flies have been killed.
# Ctenocephalides felis [4] = assay: Ctenocephalides felis - in vitro contact tests with adult cat fleas; assay type: in vivo; settings: 5 μg/cm^2 (=500 g/ha), after 48 h, adult cat fleas dead or moribund
# Method: (§3) For the coating of the test tubes, 9 mg of active compound are first dissolved in 1 ml of acetone p.a. and then diluted to the desired concentration with acetone p.a. 250 μl of the solution are distributed homogeneously on the inner walls and the base of a 25 ml test tube by turning and rocking on an orbital shaker (rocking rotation at 30 rpm for 2 h). With 900 ppm active compound solution and internal surface 44.7 cm^2, given homogeneous distribution, an area-based dose of 5 μg/cm^2 is achieved.
# After the solvent has evaporated off, the tubes are populated with 5-10 adult cat fleas (Ctenocephalides felis), sealed with a perforated plastic lid and incubated in a horizontal position at room temperature and ambient humidity. After 48 h, efficacy is determined. To this end, the test tubes are stood upright and the fleas are knocked to the base of the tube. Fleas which remain motionless at the base or move in an uncoordinated manner are considered to be dead or moribund.
# 100% efficacy means that all the fleas were dead or moribund. 0% efficacy means that no fleas were harmed.
# Rhipicephalus sanguineus = Rhipicephalus sanguineus - in vitro contact tests with adult brown dog ticks; assay type: in vivo; settings: 5 μg/cm^2 (=500 g/ha), after 48 h, adult dog ticks dead or moribund
# Method: as §3, with “p.a. and 20 then diluted” for “p.a. and then diluted”
# After the solvent has evaporated off, the tubes are populated with 5-10 adult dog ticks (Rhipicephalus sanguineus), sealed with a perforated plastic lid and incubated in a horizontal position in the dark at room temperature and ambient humidity. After 48 h, efficacy is determined. To this end, the ticks are knocked to the base of the tube and incubated on a hotplate at 45-50° C. for not more than 5 min. Ticks which remain motionless on the base or move in such an uncoordinated manner that they are unable to deliberately avoid the heat by climbing upwards are considered to be dead or moribund.
# An efficacy of 100% means that all the ticks were dead or moribund. 0% efficacy means that none of the ticks were harmed.
# Myzus persicae [5] = assay: Myzus persicae - spray test (Chinese cabbage leaf discs); assay type: in vivo; settings: 500 g/ha, after 5-6 days
# Method: • Solvent: 78 parts by weight of acetone • 1.5 parts by weight of dimethylformamide • Emulsifier: alkylaryl polyglycol ether
# as §2
# Discs of Chinese cabbage leaves (Brassica pekinensis) infested by all stages of the green peach aphid (Myzus persicae) are sprayed with an active compound preparation of the desired concentration.
# After 5-6 days, the efficacy in % is determined. 100% means that all the aphids have been killed; 0% means that no aphids have been killed.
# Meloidogyne incognita = Meloidogyne incognita test; assay type: in vivo; settings: 20 ppm, after 14 days, formation of galls on lettuce roots
# Method: • Solvent: 125.0 parts by weight of acetone To produce a suitable preparation of active compound, 1 part by weight of active compound is mixed with the stated amount of solvent and the concentrate is diluted with water to the desired concentration. Vessels are filled with sand, active compound solution, an egg/larvae suspension of the southern root-knot nematode (Meloidogyne incognita) and lettuce seeds. The lettuce seeds germinate and the plants develop. The galls develop on the roots. After 14 days, the nematicidal efficacy in % is determined by the formation of galls. 100% means that no galls were found; 0% means that the number of galls on the treated plants corresponds to the untreated control.
# Tetranychus urticae = Tetranychus urticae - spray test, OP-resistant; assay type: in vivo; settings: 500 g/ha, after 6 days, bean leaf discs
# Method: as §1, §2
# Discs of bean leaves (Phaseolus vulgaris) infested with all stages of the greenhouse red spider mite (Tetranychus urticae) are sprayed with an active compound preparation of the desired concentration.
# After 6 days, the efficacy in % is determined. 100% means that all the spider mites have been killed; 0% means that no spider mites have been killed.
# Haemonchus contortus = Haemonchus contortus test; assay type: in vivo; settings: 20 ppm, after 5 days, larvae
# Method: • Solvent: Dimethyl Sulphoxide To produce a suitable preparation of active compound, 10 mg of active compound are mixed with 0.5 ml of dimethyl sulphoxide and the concentrate is diluted with “Ringer's solution” to the desired concentration. Vessels containing the active compound preparation of the desired concentration are populated with about 40 larvae of the red stomach worm (Haemonchus contortus). After 5 days, the kill in % is determined. 100% means that all the larvae have been killed; 0% means that none of the larvae have been killed.
Structure (SMILES),LOGP_HCOOH [1],LOGP_NEUTRAL [1],efficacy (Spodoptera frugiperda) [%],efficacy (kill) (Lucilia cuprina) [%],efficacy (Phaedon cochleariae) [%],efficacy (kill) (Myzus persicae [2]) [%],efficacy (kill) (Ctenocephalides felis [3]) [%],efficacy (Boophilus microplus) [%],efficacy (kill) (Musca domestica; 4 ppm) [%],efficacy (Ctenocephalides felis [4]) [%],efficacy (Rhipicephalus sanguineus) [%],efficacy (Myzus persicae [5]) [%],nematicidal efficacy (Meloidogyne incognita) [%],efficacy (Tetranychus urticae) [%],efficacy (kill) (Musca domestica; 20 ppm) [%],efficacy (kill) (Haemonchus contortus) [%]
CC[S+]([O-])c1c(-c2nc3cc(C(F)(F)F)ncc3n2C)nc2cc(C(F)(F)F)ccn12 (stereo not drawn) [Example I-18],3.29,3.25,100,100,100,,100,95,95,100,,,,,,
CCSc1c(-c2nc3cc(C(F)(F)F)cnc3n2C)nc2ccccn12 [Example I-52],3.43,3.39,,,100,,,,,,,,100,,,

# Further lines, with some results ahead:
LOGP_HCOOH [1],LOGP_NEUTRAL [1],Structure (SMILES),efficacy (Spodoptera frugiperda) [%],efficacy (kill) (Lucilia cuprina) [%],efficacy (Phaedon cochleariae) [%],efficacy (kill) (Myzus persicae [2]) [%],efficacy (kill) (Ctenocephalides felis [3]) [%],efficacy (Boophilus microplus) [%],efficacy (kill) (Musca domestica; 4 ppm) [%],efficacy (Ctenocephalides felis [4]) [%],efficacy (Rhipicephalus sanguineus) [%],efficacy (Myzus persicae [5]) [%],nematicidal efficacy (Meloidogyne incognita) [%],efficacy (Tetranychus urticae) [%],efficacy (kill) (Musca domestica; 20 ppm) [%],efficacy (kill) (Haemonchus contortus) [%]
2.70,2.64,CCS(=O)(=O)c1c(-c2nc3cc(C(F)(F)F)ccc3n2C)nc2ccccn12 [Example I-10],100,100,100,100,,,,,,,,,,
2.98,,CCS(=O)(=O)c1c(-c2nc3cc(C(F)(F)F)ccc3n2C)nc2ccc(C)cn12 [Example I-35],100,,,,,,,100,80,90,,,,
2.58,2.49,CCS(=O)(=O)c1c(-c2nc3cc(C(F)(F)F)cnc3n2C)nc2ccccn12 [Example I-59],100,100,100,,80,,,100,100,90,,90,80,80
